What was measured:
[1] = test system: inflammatory immunocytes and neutrophils in BALF; assay: COPD mouse model (LPS+CS, i.t.): immunocytes, neutrophils and T lymphocytes in BALF; format: in vivo, BALB/c mice; conditions: 15 mg/kg, p.o.
Procedure: Specific pathogen-free male BALB/c mice (about 18-20 g), aged 8 weeks, which were routinely screened serologically for relevant respiratory pathogens, were purchased from ORIENT Co. (www.orient.co.kr, Seoul, Korea) and bred allowing to access freely to feed and water in breeding room controlling the temperature of 22±2° C., and humidity of 55±15% at the light-dark cycle for 12 hours and acclimated with the experimental environment for 1 week. […] 8 weeks aged BALB/c male mice was anaesthetized with 7% chloral hydrate and 100 μl of LPS+CS mixture {LPS (100 μg/ml)+standard cigarette extract (Cigarette smoking (CS), 4 mg/ml)=1:1} was inhaled to mice (i.t.) for three weeks once a week to prepare COPD animal model. Briefly, 100 μl of LPS+CS mixture was evenly inhaled to nose and mouth of fastened mice (i.t). […] After the end of experiment, the blood, BALF, and pneumonocyte of each mice were isolated and collected to test. After blood collection, 1 ml of FBS-free/DMEM medium contained in injector was injected to the trachea of autopsied mice, and the mice was fixed with string to circulate the blood three times and isolate the cell from BALF. […] The isolated PBMCs, BAL (Bronchoalveolar lavage), and pneumocyte were adjusted to 5×10^5 cells and performed to immunofluorescence staining at 4° C. PE-anti-CD3e (553064, BD Pharmingen, USA), FITC-anti-CD8 (553031, BD Pharmingen, USA), PE-anti-CD4 (553047, BD Pharmingen, USA), PE-anti-Gr-1 (553128, BD Pharmingen, USA), and FITC-anti-neutrophil (ab55453, Abcam, UK) were added thereto, respectively, and reacted for 30 mins in ice. After the reaction, the cells were washed with phosphate buffered physiological saline solution more than three times and the cell frequency (%) of CD3^+CD4^+& CD3^+CD8^+, and Gr-1^+Neutrophil^+ was determined using by Cell Quest program (643274, BD Biosciences, USA) of the flow cytometer (FACSCalibur, Becton, Dickinson, USA) and the absolute total number in each tissue was calculated by applying total cells.

MMP-9 and NF-κB = assay: COPD rat model: expression of proinflammatory proteins in lung tissue (Western blotting); format: in vivo, Sprague-Dawley rat; conditions: ATC2 and Verproside 30 mg/kg, Daxas 1 mg/kg, p.o.
[2] = test system: KC/CXCL-1 (Chemokines Gro-α); assay: COPD mouse model (LPS+CS): KC/CXCL-1 in BALF by ELISA; format: in vivo, BALB/c mice; conditions: 15 mg/kg, p.o.
Procedure: (§1) 8 weeks aged BALB/c male mice was anaesthetized with 7% chloral hydrate and 100 μl of LPS+CS mixture {LPS (100 μg/ml)+standard cigarette extract (Cigarette smoking (CS), 4 mg/ml)=1:1} was inhaled to mice (i.t.) for three weeks once a week to prepare COPD animal model. Briefly, 100 μl of LPS+CS mixture was evenly inhaled to nose and mouth of fastened mice (i.t). […] After the end of experiment, the blood, BALF, and pneumonocyte of each mice were isolated and collected to test. The level of IL-1β, IL-6, TNF-a, IL-17, MCP-1, and GRO-a (BioSource, USA) in BALF isolated from mice was determined by enzyme-linked immuno-sorbent assay. Respective antibodies against L-1β, IL-6, TNF-a, IL-17, MCP-1, and GRO-a were diluted with a coating buffer solution (291195, R&D System, USA), coated on a microwell and left alone for overnight at 4° C. Each well was washed three times with washing buffer solution and 100 μl of 10-fold diluted serum was added thereto. […] The solution was left alone for 30 mins in shadow and added with 50 μl of stop solution (DY994, R&D system, USA) to determine the absorbance using by ELISA leader at 450 nm (340PC384, Molecular Devices, USA).

TNF-α = assay: COPD mouse model (LPS+CS): TNF-α in BALF by ELISA; format: in vivo, BALB/c mice; conditions: 15 mg/kg, p.o.
Procedure: as §1

MIP-2/CXCL-2 = assay: COPD mouse model (LPS+CS): MIP-2/CXCL-2 in BALF by ELISA; format: in vivo, BALB/c mice; conditions: 15 mg/kg, p.o.
[3] = target: ADBR2 (beta-2 adrenergic receptor) GPCR (Homo sapiens, UniProt P07550); assay: ADBR2 GPCR-targeting cell-based assay (spot formation); conditions: 20 micromole; U2OS cells stably expressing ADBR2 GPCR
[4] = test system: neutrophils and total immunocytes in BALF; assay: COPD rat model (cigarette smoke): immunocytes in BALF; format: in vivo, Sprague-Dawley rat; conditions: ATC2 and Verproside 30 mg/kg
[5] = test system: inflammation in lung tissue; assay: COPD rat model: histopathological examination of lung tissue; format: in vivo, Sprague-Dawley rat; conditions: p.o.

Sequence of ADBR2 (beta-2 adrenergic receptor) GPCR (P07550 whole entry): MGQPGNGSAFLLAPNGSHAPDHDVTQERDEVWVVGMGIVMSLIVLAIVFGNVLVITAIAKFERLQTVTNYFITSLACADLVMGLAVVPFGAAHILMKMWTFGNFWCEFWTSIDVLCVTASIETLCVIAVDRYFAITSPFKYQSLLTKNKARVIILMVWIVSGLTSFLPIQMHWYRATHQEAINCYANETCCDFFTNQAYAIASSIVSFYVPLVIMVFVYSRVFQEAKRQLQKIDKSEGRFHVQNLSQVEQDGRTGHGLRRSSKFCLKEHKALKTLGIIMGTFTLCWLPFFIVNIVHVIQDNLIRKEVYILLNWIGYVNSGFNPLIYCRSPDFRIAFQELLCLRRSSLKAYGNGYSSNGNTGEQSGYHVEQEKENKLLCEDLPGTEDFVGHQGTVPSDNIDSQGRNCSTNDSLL

spot formation [3]: did not show spot formation
SMILES: O=C(O[C@H]1[C@@H]2C=CO[C@@H](O[C@@H]3O[C@H](CO)[C@@H](O)[C@H](O)[C@H]3O)[C@@H]2[C@@]2(CO)O[C@@H]12)c1ccc(O)c(O)c1 [verproside, 6-O-(3,4-dihydroxybenzoyl) catalpol]
number of total immunocyte in BALF compared with control group [1]: sharply reduced
reduction of number of neutrophils (Diff-Quik stained, cytospin) in BALF compared with control group [1]: more than 94.2%
reduction of total absolute cell number of CD4+ T cell in BALF compared with control group [1]: more than 32.9%
reduction of total absolute cell number of CD8+ T cell in BALF compared with control group [1]: not significantly different
reduction of total absolute cell number of Neutrophils+Gr-1+ cell in BALF compared with control group [1]: more than 93.9%
expression of proinflammatory protein (MMP-9, NF-κB) in lung tissue compared with COPD induced group (MMP-9 and NF-κB): significant decreased
reduction of chemokine KC/CXCL-1 in BALF compared with control group [2]: more than 57.4%
reduction of TNF-α in BALF compared with control group (TNF-α): more than 42.2%
reduction of chemokines MIP-2/CXCL-2 in BALF compared with control group (MIP-2/CXCL-2): more than 63.0%
ratio of the number of neutrophils to that of immunocytes (counting 300 immunocytes) compared with COPD induced group ([4]; Daxas 1 mg/kg, p.o.): remarkably reduced ratio
level of neutrophils in BALF compared with COPD induced group ([4]; Daxas 1 mg/kg, p.o. 1 hr prior to cigarette smoke exposure): remarkably reduced level
level of total immunocytes in BALF compared with COPD induced group ([4]; p.o. 1 hr prior to cigarette smoke exposure): remarkably reduced level
inhibitory effect on inflammation in lung tissue relative to Daxas group ([5]; ATC2 and Verproside 30 mg/kg versus Daxas 1 mg/kg): more potent
inflammation (infiltration of inflammatory cells) in lung tissue compared with COPD induced group ([5]; ATC2 and Verproside 30 mg/kg, Daxas 1 mg/kg): significant decreased

Source: patent US10172816B2, “Method of treating chronic obstructive pulmonary disease (CPD) with verproside” (YUNGJIN PHARMACEUTICAL CO., LTD, priority 2013, dated 2019)
